# Legend:
# Heteranthera limosa = assay: Test B flooded paddy test; assay type: in vivo; settings: Flood, 250 g ai/ha; 0 to 100 scale where 0 is no effect and 100 is complete control
# Method in brief: (§1)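 Evaluation is visual, against untreated controls, 13 to 15 days after treatment. Before treatment, plants reached the 2-leaf stage; pots were then flooded 3 cm deep, compound was added to the water, and that level was maintained. Ratings run 0 to 100, with 100 meaning complete control.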
# pigweed [1] = assay: Test A preemergence; assay type: in vivo, Amaranthus retroflexus; settings: for Pigweed plant response rating: 0 to 100 scale, 0 no effect, 100 complete control, approx. 10 days; for Plant response rating, Pigweed: 0 to 100 scale where 0 is no effect and 100 is complete control
# Method in brief: (§2)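 Pre- and postemergence greenhouse screen. Soil: loam + sand. Spray carrier: solvent mixture, non-phytotoxic, with surfactant. Post timing at 1–2 leaves, height 2–10 cm. Readout: visual injury on a 0–100 scale roughly 10 days after application, untreated plants as reference.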
# giant foxtail [2] = assay: Test A postemergence; assay type: in vivo, Setaria faberii
# Method in brief: as §2
# corn = assay: Test A postemergence; assay type: in vivo, Zea mays
# Method in brief: as §2
# sedge, umbrella = assay: Test B flooded paddy test; assay type: in vivo, Cyperus difformis; settings: Flood, 250 g ai/ha; 0 to 100 scale where 0 is no effect and 100 is complete control
# Method in brief: as §1
# pigweed [3] = assay: Test A postemergence; assay type: in vivo, Amaranthus retroflexus
# Method in brief: as §2
# wheat = assay: Test A postemergence; assay type: in vivo, Triticum aestivum
# Method in brief: as §2
# barnyardgrass [4] = assay: Test B flooded paddy test; assay type: in vivo, Echinochloa crus-galli; settings: Flood, 250 g ai/ha; 0 to 100 scale where 0 is no effect and 100 is complete control
# Method in brief: as §1
# barnyardgrass [5] = assay: Test A preemergence; assay type: in vivo, Echinochloa crus-galli; settings: for Barnyardgrass plant response rating: 0 to 100 scale, 0 no effect, 100 complete control, approx. 10 days; for Plant response rating, Barnyardgrass: 0 to 100 scale where 0 is no effect and 100 is complete control
# Method in brief: as §2
# Italian ryegrass [6] = assay: Test A postemergence; assay type: in vivo, Lolium multiflorum
# Method in brief: as §2
# ragweed [7] = assay: Test A preemergence; assay type: in vivo, Ambrosia elatior; settings: for Ragweed plant response rating: 0 to 100 scale, 0 no effect, 100 complete control, approx. 10 days; for Plant response rating, Ragweed: 0 to 100 scale where 0 is no effect and 100 is complete control
# Method in brief: as §2
# kochia [8] = assay: Test A preemergence; assay type: in vivo, Kochia scoparia; settings: for Kochia plant response rating: 0 to 100 scale, 0 no effect, 100 complete control, approx. 10 days; for Plant response rating, Kochia: 0 to 100 scale where 0 is no effect and 100 is complete control
# Method in brief: as §2
# galium = assay: Test A postemergence; assay type: in vivo, Galium aparine
# Method in brief: as §2
# ragweed [9] = assay: Test A postemergence; assay type: in vivo, Ambrosia elatior
# Method in brief: as §2
# barnyardgrass [10] = assay: Test A postemergence; assay type: in vivo, Echinochloa crus-galli
# Method in brief: as §2
# giant foxtail [11] = assay: Test A preemergence; assay type: in vivo, Setaria faberii; settings: for Foxtail, Giant plant response rating: 0 to 100 scale, 0 no effect, 100 complete control, approx. 10 days; for Plant response rating, Foxtail, Giant: 0 to 100 scale where 0 is no effect and 100 is complete control
# Method in brief: as §2
# Italian ryegrass [12] = assay: Test A preemergence; assay type: in vivo, Lolium multiflorum; settings: for Ryegrass, Italian plant response rating: 0 to 100 scale, 0 no effect, 100 complete control, approx. 10 days; for Plant response rating, Ryegrass, Italian: 0 to 100 scale where 0 is no effect and 100 is complete control
# Method in brief: as §2
# blackgrass = assay: Test A postemergence; assay type: in vivo, Alopecurus myosuroides
# Method in brief: as §2
# rice = assay: Test B flooded paddy test; assay type: in vivo, Oryza sativa; settings: Flood, 250 g ai/ha; 0 to 100 scale where 0 is no effect and 100 is complete control
# Method in brief: as §1
# kochia [13] = assay: Test A postemergence; assay type: in vivo, Kochia scoparia
# Method in brief: as §2
# [14] = 1000 g ai/ha, 0 to 100 scale, 0 no effect, 100 complete control
# [15] = 31 g ai/ha, visual, approximately 10 days
# [16] = 31 g ai/ha, 0 to 100 scale, 0 no effect, 100 complete control
# [17] = 125 g ai/ha, 0 to 100 scale, 0 no effect, 100 complete control
# [18] = 125 g ai/ha, 0 to 100 scale where 0 is no effect and 100 is complete control
# [19] = 500 g ai/ha, 0 to 100 scale where 0 is no effect and 100 is complete control
# [20] = 500 g ai/ha, 0 to 100 scale, 0 no effect, 100 complete control
compound,measurement,setting,value
Fc1cccc(Oc2ncc(Cl)cn2)c1-n1ccnn1 [Compound 159],"Plant response rating, Ducksalad",Heteranthera limosa,0
same,Pigweed plant response rating,pigweed [1]; 1000 g ai/ha,100
same,"Plant response rating, Foxtail, Giant",giant foxtail [2]; [14],90
same,"Plant response rating, Corn",corn; [14],40
same,"Plant response rating, Sedge, Umbrella","sedge, umbrella",0
same,"Plant response rating, Pigweed",pigweed [3]; [14],100
same,"Plant response rating, Wheat",wheat; [14],30
same,"Plant response rating, Barnyardgrass",barnyardgrass [4],0
same,Barnyardgrass plant response rating,barnyardgrass [5]; 1000 g ai/ha,100
same,"Plant response rating, Ryegrass, Italian",Italian ryegrass [6]; [14],30
same,Ragweed plant response rating,ragweed [7]; 1000 g ai/ha,100
same,Kochia plant response rating,kochia [8]; 1000 g ai/ha,100
same,"Plant response rating, Galium",galium; [14],90
same,"Plant response rating, Ragweed",ragweed [9]; [14],80
same,"Plant response rating, Barnyardgrass",barnyardgrass [10]; [14],70
same,"Foxtail, Giant plant response rating",giant foxtail [11]; 1000 g ai/ha,100
same,"Ryegrass, Italian plant response rating",Italian ryegrass [12]; 1000 g ai/ha,30
same,"Plant response rating, Blackgrass",blackgrass; [14],50
same,"Plant response rating, Rice",rice,0
same,"Plant response rating, Kochia",kochia [13]; [14],100
Clc1cnc(Oc2ccccc2-n2cccc2)nc1 [Compound 269],"Plant response rating, Ducksalad",Heteranthera limosa,0
same,"Plant response rating, Pigweed",pigweed [1]; [15],0
same,Pigweed plant response rating (0 to 100 scale),pigweed [1]; 125 g ai/ha,0
same,"Plant response rating, Foxtail, Giant",giant foxtail [2]; [16],0
same,"Plant response rating, Foxtail, Giant",giant foxtail [2]; [17],0
same,"Plant response rating, Corn",corn; [16],0
same,"Plant response rating, Corn",corn; [17],0
same,"Plant response rating, Sedge, Umbrella","sedge, umbrella",0
same,"Plant response rating, Pigweed",pigweed [3]; [16],0
same,"Plant response rating, Pigweed",pigweed [3]; [17],0
same,"Plant response rating, Wheat",wheat; [16],0
same,"Plant response rating, Wheat",wheat; [17],0
same,"Plant response rating, Barnyardgrass",barnyardgrass [4],0
same,"Plant response rating, Barnyardgrass",barnyardgrass [5]; [15],0
same,"Barnyardgrass plant response rating (0 to 100 scale, 0 is no effect, 100 is complete control)",barnyardgrass [5]; 125 g ai/ha,0
same,"Plant response rating, Ryegrass, Italian",Italian ryegrass [6]; [16],0
same,"Plant response rating, Ryegrass, Italian",Italian ryegrass [6]; [17],0
same,"Plant response rating, Ragweed",ragweed [7]; [15],0
same,Ragweed plant response rating (0 to 100 scale),ragweed [7]; 125 g ai/ha,0
same,"Plant response rating, Kochia",kochia [8]; [15],0
same,Kochia plant response rating (0 to 100 scale),kochia [8]; 125 g ai/ha,0
same,"Plant response rating, Galium",galium; [16],0
same,"Plant response rating, Galium",galium; [17],0
same,"Plant response rating, Ragweed",ragweed [9]; [16],0
same,"Plant response rating, Ragweed",ragweed [9]; [17],0
same,"Plant response rating, Barnyardgrass",barnyardgrass [10]; [16],0
same,"Plant response rating, Barnyardgrass",barnyardgrass [10]; [17],0
same,"Plant response rating, Foxtail, Giant",giant foxtail [11]; [15],0
same,"Foxtail, Giant plant response rating (0 to 100 scale)",giant foxtail [11]; 125 g ai/ha,0
same,"Plant response rating, Ryegrass, Italian",Italian ryegrass [12]; [15],0
same,"Ryegrass, Italian plant response rating (0 to 100 scale)",Italian ryegrass [12]; 125 g ai/ha,0
same,"Plant response rating, Blackgrass",blackgrass; [16],0
same,"Plant response rating, Blackgrass",blackgrass; [17],0
same,"Plant response rating, Rice",rice,0
same,"Plant response rating, Kochia",kochia [13]; [16],0
same,"Plant response rating, Kochia",kochia [13]; [17],0
CC(C)(C)c1cnn(-c2c(C#N)cccc2Oc2ncc(Cl)cn2)c1 [Compound 82],"Plant response rating, Ducksalad",Heteranthera limosa,30
same,"Plant response rating, Pigweed",pigweed [1]; 125 g ai/ha,0
same,Pigweed plant response rating,pigweed [1]; 500 g ai/ha,60
same,"Plant response rating, Foxtail, Giant",giant foxtail [2]; [18],0
same,"Plant response rating, Foxtail, Giant",giant foxtail [2]; [19],20
same,"Plant response rating, Corn",corn; [18],0
same,"Plant response rating, Corn",corn; [20],10
same,"Plant response rating, Sedge, Umbrella","sedge, umbrella",0
same,"Plant response rating, Pigweed",pigweed [3]; [18],10
same,"Plant response rating, Pigweed",pigweed [3]; [19],40
same,"Plant response rating, Wheat",wheat; [18],0
same,"Plant response rating, Wheat",wheat; [19],30
same,"Plant response rating, Barnyardgrass",barnyardgrass [4],0
same,"Plant response rating, Barnyardgrass",barnyardgrass [5]; 125 g ai/ha,0
same,Barnyardgrass plant response rating,barnyardgrass [5]; 500 g ai/ha,30
same,"Plant response rating, Ryegrass, Italian",Italian ryegrass [6]; [18],0
same,"Plant response rating, Ryegrass, Italian",Italian ryegrass [6]; [19],20
same,"Plant response rating, Ragweed",ragweed [7]; 125 g ai/ha,0
same,Ragweed plant response rating,ragweed [7]; 500 g ai/ha,0
same,"Plant response rating, Kochia",kochia [8]; 125 g ai/ha,0
same,Kochia plant response rating,kochia [8]; 500 g ai/ha,0
same,"Plant response rating, Galium",galium; [18],10
same,"Plant response rating, Galium",galium; [19],20
same,"Plant response rating, Ragweed",ragweed [9]; [18],0
same,"Plant response rating, Ragweed",ragweed [9]; [19],10
same,"Plant response rating, Barnyardgrass",barnyardgrass [10]; [18],0
same,"Plant response rating, Barnyardgrass",barnyardgrass [10]; [20],20
same,"Plant response rating, Foxtail, Giant",giant foxtail [11]; 125 g ai/ha,10
same,"Foxtail, Giant plant response rating",giant foxtail [11]; 500 g ai/ha,70
same,"Plant response rating, Ryegrass, Italian",Italian ryegrass [12]; 125 g ai/ha,0
same,"Ryegrass, Italian plant response rating",Italian ryegrass [12]; 500 g ai/ha,0
same,"Plant response rating, Blackgrass",blackgrass; [18],10
same,"Plant response rating, Blackgrass",blackgrass; [20],50
same,"Plant response rating, Rice",rice,0
same,"Plant response rating, Kochia",kochia [13]; [18],0
same,"Plant response rating, Kochia",kochia [13]; [19],10
CC(C)Oc1cnn(-c2c(Br)cccc2Oc2ncc(Cl)cn2)c1 [Compound 148],"Plant response rating, Ducksalad",Heteranthera limosa,40
same,"Plant response rating, Pigweed",pigweed [1]; [15],0
same,"Plant response rating, Pigweed",pigweed [1]; 125 g ai/ha,10
same,"Plant response rating, Foxtail, Giant",giant foxtail [2]; [16],10
same,"Foxtail, Giant plant response rating",giant foxtail [2]; [18],40
same,"Plant response rating, Corn",corn; [16],0
same,Corn plant response rating,corn; [18],20
same,"Plant response rating, Sedge, Umbrella","sedge, umbrella",30
same,"Plant response rating, Pigweed",pigweed [3]; [16],50
same,Pigweed plant response rating,pigweed [3]; [18],50
same,"Plant response rating, Wheat",wheat; [16],0
same,Wheat plant response rating,wheat; [18],0
same,"Plant response rating, Barnyardgrass",barnyardgrass [4],0
same,"Plant response rating, Barnyardgrass",barnyardgrass [5]; [15],0
same,"Plant response rating, Barnyardgrass",barnyardgrass [5]; 125 g ai/ha,50
same,"Plant response rating, Ryegrass, Italian",Italian ryegrass [6]; [16],0
same,"Ryegrass, Italian plant response rating",Italian ryegrass [6]; [18],0
same,"Plant response rating, Ragweed",ragweed [7]; [15],0
same,"Plant response rating, Ragweed",ragweed [7]; 125 g ai/ha,0
same,"Plant response rating, Kochia",kochia [8]; [15],0
same,"Plant response rating, Kochia",kochia [8]; 125 g ai/ha,0
same,"Plant response rating, Galium",galium; [16],20
same,Galium plant response rating,galium; [18],60
same,"Plant response rating, Ragweed",ragweed [9]; [16],10
same,Ragweed plant response rating,ragweed [9]; [18],20
same,"Plant response rating, Barnyardgrass",barnyardgrass [10]; [16],0
same,Barnyardgrass plant response rating,barnyardgrass [10]; [18],30
same,"Plant response rating, Foxtail, Giant",giant foxtail [11]; [15],10
same,"Plant response rating, Foxtail, Giant",giant foxtail [11]; 125 g ai/ha,70
same,"Plant response rating, Ryegrass, Italian",Italian ryegrass [12]; [15],0
same,"Plant response rating, Ryegrass, Italian",Italian ryegrass [12]; 125 g ai/ha,0
same,"Plant response rating, Blackgrass",blackgrass; [16],0
same,Blackgrass plant response rating,blackgrass; [18],10
same,"Plant response rating, Rice",rice,0
same,"Plant response rating, Kochia",kochia [13]; [16],0
same,Kochia plant response rating,kochia [13]; [18],30

# From US9695155B2, “Herbicidal substituted pyrimidinyloxy benzene compounds” (E. I. DU PONT DE NEMOURS AND COMPANY, priority 2013, dated 2017)
